Several values for one entry are separate records, joined by “and”; a condition that tells them apart may be missing. Equal values may be shown once. Read-outs that look alike come from different tables or passages of the source.
Assays:
[1] = system: SCC-9 cells (OSCC cells); test: MTT cell viability assay, SCC-9; type: cell-based, human; conditions: for SI (SCC-9): IC50 normal oral fibroblast / IC50 SCC-9
Experimental: (§1) Human SCC-4, SCC-9, and SCC-25 cells, derived from a human oral tongue SCC (squamous cell carcinoma), were obtained from ATCC (CRL-1624, CRL-1629, and CRL-1628, respectively) and maintained in 1:1 DMEM/F12 (Dulbecco’s modified Eagle’s medium and Ham’s F12 medium; Gibco (Thermo Fisher, Waltham, MA, USA)) supplemented with 10% (v/v) FBS (fetal bovine serum; Invitrogen, Thermo Fisher, Waltham, MA, USA) and 400 ng/mL hydrocortisone (Sigma-Aldrich Corporation, St. Louis, MO, USA). B16-F10 (melanoma; CRL-6475), HCT-116 (colorectal cancer; CCL-247), and HepG2 (liver cancer; HB-8065), in addition to primary normal human gingival fibroblasts obtained from ATCC (PCS-201-018), were maintained in DMEM supplemented with 10% (v/v) of FBS and were used in a maximum of six passages. Cells were grown in a humidified environment containing 5% CO2 at 37 °C. For all biological assays, compounds and shikonin were solubilized in 100% DMSO (all Sigma-Aldrich Corp.) to a final concentration of 10 mM and lapachol in ethanol. The carboplatin control was prepared in water (Fauldcarbo; Libbs Farmacêutica, São Paulo, SP, Brazil) and was used as a standard anticancer compound.
(§2) The viability of OSCC cell lines and primary human fibroblast cells was assessed using the MTT assay as in ref . Briefly, cells were grown in triplicate in 96-well plates (5 × 10^3 cells/well) until confluence. Then, the medium was removed, fresh medium was added, and the cells were returned to the incubator in the presence of different compounds. DMSO at the same concentration was used as a control for 100% cell viability. After 72 h, cells were incubated with 0.5 mg/mL of MTT reagent (3-(4,5-dimethyl-2-thiazolyl)-2,5-diphenyl-2-H-tetrazolium bromide) (Sigma-Aldrich Corporation, Louis, MO, USA) for 3.5 h. Then, the wells containing the cells were washed with PBS heated to 37 °C, the formazan crystals were dissolved in a solvent solution (DMSO/methanol 1:1 v/v), and the absorbance was read at 560 nm using an EPOCH microplate spectrophotometer (BioTek Instruments, Winooski, VT, USA) with the background absorbance at 670 nm subtracted. Control chemotherapeutics (carboplatin and shikonin) were used.
(§3) Data are presented as means ± SD. IC50 values for the MTT assays were obtained by nonlinear regression using the […] 8.4.3.0 program (Intuitive Software for Science, San Diego, CA, USA) from at least three independent experiments. A dose–response curve (inhibitor) vs response using the least-squares method was used to determine the IC50, SD, and R2 of the data. The selectivity index was calculated as SI = IC50 of the compound in normal oral fibroblast cells/IC50 of the same compound for each oral cancer cell line (SCC-4, SCC-9, and SCC-25) and averaged when indicated.

[2] = system: SCC-4 cells; test: MTT cell viability assay, SCC-4; type: cell-based, human; conditions: for IC50: read-out: IC50 SCC-4
Experimental: as §1, §2, §3

[3] = system: primary normal human gingival fibroblasts; test: MTT cell viability assay, primary gingival fibroblasts; type: cell-based; conditions: 72 h, read-out: IC50 primary gingival fibroblast
Experimental: as §1, §2, §3

[4] = system: SCC-25 cells; test: MTT cell viability assay, SCC-25; type: cell-based, human; conditions: for IC50: read-out: IC50 SCC-25
Experimental: as §1, §2, §3

[5] = system: OSCC cell lines (SCC-4, SCC-9, and SCC-25); test: Average selectivity index over three OSCC cell lines (MTT); type: cell-based, human; conditions: average of SI for SCC-4, SCC-9 and SCC-25 vs normal oral fibroblasts
Experimental: as §1, §2, §3

[6] = system: HepG2 (liver cancer); test: MTT cytotoxicity/selectivity, HepG2; type: cell-based; conditions: vs normal oral fibroblasts
Experimental: as §1
as §2, with “DMSO at the same concentration was used as a control for 100% cell viability. After 72 h, cells were incubated with 0.5 mg/mL of MTT reagent (3-(4,5-dimethyl-2-thiazolyl)-2,5-diphenyl-2-H-tetrazolium bromide) (Sigma-Aldrich Corporation, Louis, MO, USA) for 3.5 h.” left out, “Control chemotherapeutics (carboplatin and shikonin) were used.” left out
(§4) Data are presented as means ± SD. […] The selectivity index was calculated as SI = IC50 of the compound in normal oral fibroblast cells/IC50 of the same compound for each oral cancer cell line (SCC-4, SCC-9, and SCC-25) and averaged when indicated.

[7] = system: human erythrocytes; test: Hemolysis assay; type: cell-based; conditions: 500 μM; Triton X-100 positive control
Experimental: To determine the surfactant power of the substances present in biological membranes, a hemolysis test was carried out with human blood approved by the Research Ethics Committee of the Universidade Federal Fluminense (CAAE: 43134721.4.0000.5626). Erythrocytes were collected for centrifugation at 1500 rpm for 15 min, washed with PBS (phosphate-buffered saline) supplemented with 10 mM glucose, and counted in an automatic cell counter (Thermo Fisher, Waltham, MA, USA). […] In total, 10 μL of PBS was used as a negative control, and 10 μL of PBS with 0.1% Triton x 100 was used as a positive control. Data reading was performed with EPOCH (BioTek Instruments, Winooski, VT, USA) at an absorbance of 540 nm, and statistical data were generated using […] Prism 8.4.3.0 program (Intuitive Software for Science, San Diego, CA, USA).

[8] = system: HCT-116 (colorectal cancer); test: MTT cytotoxicity/selectivity, HCT-116; type: cell-based; conditions: vs normal oral fibroblasts
Experimental: as §1
as §2, with “DMSO at the same concentration was used as a control for 100% cell viability. After 72 h, cells were incubated with 0.5 mg/mL of MTT reagent (3-(4,5-dimethyl-2-thiazolyl)-2,5-diphenyl-2-H-tetrazolium bromide) (Sigma-Aldrich Corporation, Louis, MO, USA) for 3.5 h.” left out, “Control chemotherapeutics (carboplatin and shikonin) were used.” left out
as §4

[9] = system: B16-F10 (melanoma); test: MTT cytotoxicity/selectivity, B16-F10; type: cell-based; conditions: vs normal oral fibroblasts
Experimental: as §1
as §2, with “DMSO at the same concentration was used as a control for 100% cell viability. After 72 h, cells were incubated with 0.5 mg/mL of MTT reagent (3-(4,5-dimethyl-2-thiazolyl)-2,5-diphenyl-2-H-tetrazolium bromide) (Sigma-Aldrich Corporation, Louis, MO, USA) for 3.5 h.” left out, “Control chemotherapeutics (carboplatin and shikonin) were used.” left out
as §4

[10] = system: esophageal squamous carcinoma cells; set-up: method as in PMID 31225674; conditions: inhibits RSK2 and induces intrinsic apoptosis in esophageal squamous carcinoma cells; cited from earlier work
[11] = Homo sapiens, SCC-9, 72 h, MTT, read-out: IC50 SCC-9 oral cancer

Compound	IC50 [1, 11]	SI (SCC-9) [1]	IC50 ([3]; Homo sapiens, Fibroblast, MTT)	average SI [5]	other results
Cc1cccc(SC2C3=C(OC(C)(C)C2Sc2cccc(C)c2)C(=O)c2ccccc2C3=O)c1 (centres unmarked) [7c, 2,2-Dimethyl-3,4-bis(m-tolylthio)-3,4-dihydro-2H-benzo[g]chromene-5,10-dione]	15.3 µM	2.7	40.8 µM	1.8	IC50 ([2]; Homo sapiens, SCC-4, 72 h, MTT): 30.2 µM; IC50 ([4]; Homo sapiens, SCC-25, 72 h, MTT): 31.8 µM
CC1(C)OC2=C(C(=O)c3ccccc3C2=O)C(Sc2ccc(Cl)cc2)C1Sc1ccc(Cl)cc1 (centres unmarked) [7h, 3,4-Bis((4-chlorophenyl)thio)-2,2-dimethyl-3,4-dihydro-2H-benzo[g]chromene-5,10-dione]	33.3 µM	1.3	43 µM	–	–
CC(C)=CC[C@@H](O)C1=CC(=O)c2c(O)ccc(O)c2C1=O [Shikonin, shikonin, reference compound]	–	1.0	–	2.0	IC50 ([1]; Homo sapiens, SCC-9, 72 h, read-out: IC50 SCC-9 oral cancer, 72 h, MTT): 2.1 µM; IC50 ([2]; Homo sapiens, SCC-4, 72 h): 1.6 µM; IC50 ([3]; Homo sapiens, Fibroblast): 2.2 µM; IC50 ([4]; Homo sapiens, SCC-25, 72 h): 0.6 µM
Cc1ccccc1SC1C2=C(OC(C)(C)C1Sc1ccccc1C)C(=O)c1ccccc1C2=O (centres unmarked) [7b, 2,2-Dimethyl-3,4-bis(o-tolylthio)-3,4-dihydro-2H-benzo[g]chromene-5,10-dione]	34.8 µM	1.5	50.9 µM	–	–
N.N.O=C([O-])C1(C(=O)[O-])CCC1.[Pt+2] [Carboplatin, carboplatin, reference compound]	–	2.6	–	3.5	IC50 ([1]; 72 h, MTT, read-out: IC50 SCC-9 oral cancer): 49.8 µM; IC50 ([2]; 72 h, MTT): 27.7 µM; selective index (SI) SCC-4 ([2]; vs normal oral fibroblasts): 4.6; selective index (SI) HepG2 hepatocellular carcinoma [6]: 7.1; IC50 ([3]; MTT): 128 µM; IC50 ([4]; 72 h, MTT): 38.3 µM; selective index (SI) SCC-25 ([4]; vs normal oral fibroblasts): 3.3; % Hemolysis (Mean ± SD) [7]: 1.34 ± 0.10%; selective index (SI) HCT-116 colon cancer [8]: 2.5; selective index (SI) B16-F10 melanoma [9]: 5.5
CC(C)=CCC1=C(O)C(=O)c2ccccc2C1=O [lapachol]	–	–	–	–	IC50 [10]: 2 µM
CC1(C)OC2=C(C(=O)c3ccccc3C2=O)C(Sc2ccc(F)cc2)C1Sc1ccc(F)cc1 (centres unmarked) [7f, 3,4-Bis((4-fluorophenyl)thio)-2,2-dimethyl-3,4-dihydro-2H-benzo[g]chromene-5,10-dione]	35.3 µM	1.1	40 µM	–	–
CC1(C)OC2=C(C(=O)c3ccccc3C2=O)C(Sc2ccc(O)cc2)C1Sc1ccc(O)cc1 (centres unmarked) [7i, 3,4-Bis((4-hydroxyphenyl)thio)-2,2-dimethyl-3,4-dihydro-2H-benzo[g]chromene-5,10-dione]	17.2 µM	1.9	32.6 µM	–	–
Cc1ccc(SC2C3=C(OC(C)(C)C2Sc2ccc(C)cc2)C(=O)c2ccccc2C3=O)cc1 (centres unmarked) [7d, 2,2-Dimethyl-3,4-bis(p-tolylthio)-3,4-dihydro-2H-benzo[g]chromene-5,10-dione]	30.9 µM	1.9	60.1 µM	–	–
Triton X-100	–	–	–	–	% Hemolysis (Mean ± SD) [7]: 100% and 99.6 ± 2.51%

Source: publication PMC12444508, “Mechanistic Insights into the Anticancer Action of Novel 2‑Hydroxy-1,4-naphthoquinone Thiol Derivatives” (ACS Omega, 2025)
